Source: ChEMBL document CHEMBL1133772, “In vitro and in vivo evaluation of dihydropyrimidinone C-5 amides as potent and selective alpha(1A) receptor antagonists for the treatment of benign prostatic hyperplasia” (J Med Chem, 2000)

Assays:
[1] = t1/2 in rat; assay type: ADME, organism-based; details: in vivo
Canis familiaris [2] = species: Canis familiaris; experiment: Dose effecting a 20 mmHg change in diastolic blood pressure in dog.; assay type: functional, Canis lupus familiaris, Artery
Rattus norvegicus [3] = species: Rattus norvegicus; experiment: Duration of action with repeated challenges of A61603 agonist in rat; assay type: functional
Rattus norvegicus [4] = species: Rattus norvegicus; experiment: Evaluated for the inhibition of A61603-induced prostate contraction in rat; assay type: functional, Prostate gland
[5] = Bioavailability in rat; assay type: ADME, organism-based; details: in vivo
[6] = target: T1, Alpha-1A adrenergic receptor (Homo sapiens, UniProt P35348); experiment: Evaluated for the ability to displace [125I]- HEAT from human cloned Alpha-1A adrenergic receptor stably expressed in CHO cells.; assay type: cell-based
T1 sequence (P35348 whole entry): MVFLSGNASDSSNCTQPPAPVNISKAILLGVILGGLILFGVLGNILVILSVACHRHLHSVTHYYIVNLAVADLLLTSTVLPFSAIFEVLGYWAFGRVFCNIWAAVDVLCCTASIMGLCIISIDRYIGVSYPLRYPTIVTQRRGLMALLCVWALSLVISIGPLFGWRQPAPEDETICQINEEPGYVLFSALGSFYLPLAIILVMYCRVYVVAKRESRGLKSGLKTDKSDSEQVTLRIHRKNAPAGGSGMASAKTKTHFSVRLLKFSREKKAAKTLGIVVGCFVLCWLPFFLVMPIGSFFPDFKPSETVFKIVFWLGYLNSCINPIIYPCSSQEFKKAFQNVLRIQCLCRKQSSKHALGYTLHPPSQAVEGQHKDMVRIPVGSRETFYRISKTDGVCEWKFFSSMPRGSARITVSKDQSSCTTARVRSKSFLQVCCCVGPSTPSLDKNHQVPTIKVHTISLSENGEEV

[7] = target: T2, Alpha-1B adrenergic receptor (Homo sapiens, UniProt P35368); experiment: Evaluated for the ability to displace [125I]- HEAT from human cloned Alpha-1B adrenergic receptor stably expressed in LM cells.; assay type: cell-based
T2 sequence (P35368 whole entry): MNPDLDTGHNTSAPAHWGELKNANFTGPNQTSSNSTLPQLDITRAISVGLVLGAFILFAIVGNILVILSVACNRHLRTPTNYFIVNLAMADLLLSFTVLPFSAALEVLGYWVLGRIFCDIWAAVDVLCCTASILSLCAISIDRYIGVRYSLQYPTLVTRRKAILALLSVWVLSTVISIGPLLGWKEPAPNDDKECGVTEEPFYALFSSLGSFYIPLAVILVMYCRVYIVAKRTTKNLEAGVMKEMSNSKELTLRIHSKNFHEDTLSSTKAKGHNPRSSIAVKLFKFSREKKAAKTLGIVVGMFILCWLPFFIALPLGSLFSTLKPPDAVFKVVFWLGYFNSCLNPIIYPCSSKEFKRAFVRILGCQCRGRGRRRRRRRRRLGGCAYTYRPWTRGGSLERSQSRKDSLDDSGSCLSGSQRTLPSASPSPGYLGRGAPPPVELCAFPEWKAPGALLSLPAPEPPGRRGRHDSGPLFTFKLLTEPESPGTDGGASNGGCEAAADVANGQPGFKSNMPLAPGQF

Canis familiaris [8] = species: Canis familiaris; experiment: The compound was evaluated for the inhibition of phenylephrine-induced contraction in dog.; assay type: functional, Canis lupus familiaris
[9] = target: T3, Alpha-1D adrenergic receptor (Homo sapiens, UniProt P25100); experiment: Evaluated for the ability to displace [125I]- HEAT from human cloned Alpha-1D adrenergic receptor stably expressed in HEK cells.; assay type: cell-based, HEK293
T3 sequence (P25100 whole entry): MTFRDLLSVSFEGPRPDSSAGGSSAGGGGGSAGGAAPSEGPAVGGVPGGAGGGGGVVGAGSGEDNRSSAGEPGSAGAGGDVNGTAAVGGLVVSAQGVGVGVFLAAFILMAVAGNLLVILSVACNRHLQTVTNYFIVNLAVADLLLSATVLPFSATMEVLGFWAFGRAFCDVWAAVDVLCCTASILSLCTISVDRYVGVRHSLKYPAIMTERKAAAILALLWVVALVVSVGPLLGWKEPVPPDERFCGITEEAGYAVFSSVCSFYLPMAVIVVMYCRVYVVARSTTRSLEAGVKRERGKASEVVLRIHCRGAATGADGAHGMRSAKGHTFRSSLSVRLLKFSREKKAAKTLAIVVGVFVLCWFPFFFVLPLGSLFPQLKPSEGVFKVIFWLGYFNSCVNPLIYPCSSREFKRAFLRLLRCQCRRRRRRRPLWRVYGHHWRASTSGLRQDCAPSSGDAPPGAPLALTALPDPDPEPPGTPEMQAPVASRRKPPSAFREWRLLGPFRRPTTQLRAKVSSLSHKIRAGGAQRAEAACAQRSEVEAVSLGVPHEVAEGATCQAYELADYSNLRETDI

[10] = Bioavailability in dog (dose 0.5 mg/kg i.v. and 1 mg/kg p.o.); assay type: ADME, organism-based, Canis lupus familiaris; details: in vivo, po
[11] = Plasma half-life from intravenous dose in dog.; assay type: ADME, organism-based, Canis lupus familiaris
Canis familiaris [12] = species: Canis familiaris; experiment: Compound was evaluated for the inhibition of phenylephrine-induced contraction in dog.; assay type: functional, Canis lupus familiaris
[13] = target: T1, Alpha-1A adrenergic receptor; experiment: Ability to displace [125I]- HEAT from human cloned Alpha-1A adrenergic receptor stably expressed in CHO cells.; assay type: cell-based
[14] = target: T3, Alpha-1D adrenergic receptor; experiment: Ability to displace [125I]- HEAT from human cloned Alpha-1D adrenergic receptor stably expressed in HEK cells.; assay type: cell-based, HEK293
[15] = The compound was evaluated for the bioavailability when dosed 0.5 mg/kg intravenously and 1 mg/kg perorally in dog.; assay type: ADME, organism-based, Canis lupus familiaris; details: in vivo, po
[16] = The compound was evaluated for plasma half-life from intravenous dose in dog.; assay type: ADME, organism-based, Canis lupus familiaris
Rattus norvegicus [17] = species: Rattus norvegicus; experiment: Inhibition of A61603-induced contraction; n=4 and data for each concentration was averaged (SEM<10%) in rat.; assay type: functional
Rattus norvegicus [18] = species: Rattus norvegicus; experiment: Duration of action with repeated challenges of A61603 agonist, n=4, data from each time point was averaged (SEM<10%) in rat.; assay type: functional
Rattus norvegicus [19] = species: Rattus norvegicus; experiment: Evaluated for the inhibition of A61603-induced contraction; n=4 and data for each concentration was averaged (SEM<10%) in rat.; assay type: functional
Canis familiaris [20] = species: Canis familiaris; experiment: Evaluated for the inhibition of phenylephrine-induced contraction (SEM<10%) in dog.; assay type: functional, Canis lupus familiaris
Canis familiaris [21] = species: Canis familiaris; experiment: Dose effecting a 20 mmHg change in diastolic blood pressure (SEM<10%) in dog.; assay type: functional, Canis lupus familiaris, Artery

CC1=C(C(=O)NCCCN2CCC(c3ccccc3C#N)CC2)[C@@H](c2ccc(F)c(F)c2)NC(=O)N1
half-life [1]: 2.7 h | DBP-20 (Canis familiaris [2]): >300 µg/kg | Duration (Rattus norvegicus [3]): <0.5 h | AD50 (Rattus norvegicus [4]): 3 µg/kg | bioavailability [5]: 0% | Ki [6]: 0.25 nM | Ki [7]: 158 nM | IUP AD50 (Canis familiaris [8]): 6 µg/kg | Ki [9]: 168 nM

CC1=C(C(=O)NCCCN2CCC(c3ccc(F)cc3C#N)CC2)[C@@H](c2ccc(F)c(F)c2)NC(=O)N1C
half-life [1]: 2.2 h | DBP-20 (Canis familiaris [2]): >300 µg/kg | Duration (Rattus norvegicus [3]): 2.5 h | AD50 (Rattus norvegicus [4]): 7 µg/kg | bioavailability [5]: 15% | Ki [6]: 0.12 nM | Ki [7]: 130 nM | bioavailability [10]: 27% | half-life [11]: 2.13 h | Ki [9]: 340 nM | AD50 (Canis familiaris [12]): 10 µg/kg

COCC1=C(C(=O)NCCCN2CCC(c3ccccn3)CC2)[C@@H](c2ccc(F)c(F)c2)NC(=O)N1
half-life [1]: 7 h | Duration (Rattus norvegicus [3]): 0.25 h | AD50 (Rattus norvegicus [4]): 12 µg/kg | bioavailability [5]: 0% | Ki [6]: 0.45 nM | Ki [7]: 235 nM | bioavailability [10]: 48% | half-life [11]: 5.58 h | Ki [9]: 495 nM

CC1=C(C(=O)NCCCN2CCC(c3ccc(F)cc3)CC2)[C@@H](c2ccc(F)c(F)c2)NC(=O)N1
Ki [13]: 0.39 nM | half-life [1]: 1.7 h | DBP-20 (Canis familiaris [2]): 143 µg/kg | Duration (Rattus norvegicus [3]): 0.5 h | AD50 (Rattus norvegicus [4]): 1.8 µg/kg | bioavailability [5]: < 6% | Ki [7]: 40 nM | Ki [14]: 240 nM | AD50 (Canis familiaris [12]): 7 µg/kg

COCC1=C(C(=O)NCCCN2CCC(c3ccc(F)cc3)CC2)[C@@H](c2ccc(F)c(F)c2)NC(=O)N1
Ki [13]: 0.24 nM | half-life [1]: 6.47 h | bioavailability [15]: 40% | DBP-20 (Canis familiaris [2]): >300 µg/kg | Duration (Rattus norvegicus [3]): 1 h | AD50 (Rattus norvegicus [4]): 4.6 µg/kg | bioavailability [5]: 26% | Ki [7]: 41 nM | half-life [16]: 7.77 h | Ki [9]: 260 nM | AD50 (Canis familiaris [12]): 25 µg/kg

O=C1NC=C(C(=O)NCCCN2CCC(c3ccc(F)cc3)CC2)[C@@H](c2ccc(F)c(F)c2)N1
half-life [1]: 1 h | DBP-20 (Canis familiaris [2]): >300 µg/kg | Duration (Rattus norvegicus [3]): 0.5 h | AD50 (Rattus norvegicus [4]): 2.2 µg/kg | bioavailability [5]: 0% | Ki [6]: 0.17 nM | Ki [7]: 24 nM | Ki [9]: 68 nM | AD50 (Canis familiaris [12]): 21 µg/kg

CCOc1ccccc1OCCN[C@H](C)Cc1ccc(OC)c(S(N)(=O)=O)c1 [TAMSULOSIN]
AD50 (Rattus norvegicus [17]): 3 µg/kg | Duration (Rattus norvegicus [18]): 3.5 h

COc1cc2nc(N3CCN(C(=O)C4CCCO4)CC3)nc(N)c2cc1OC (stereo not drawn) [TERAZOSIN]
AD50 (Rattus norvegicus [19]): 52 µg/kg | IUP AD50 (Canis familiaris [20]): 97 µg/kg | DBP-20 (Canis familiaris [21]): 74 µg/kg
